# Reference: patent US5565488A, “Oxalylamino-benzofuran- and benzothienyl-derivatives” (Bayer Aktiengesellschaft, priority 1994, dated 1996)
# What was measured:
# [1] = test system: human PMN; experiment: Inhibition of FMLP-stimulated production of superoxide radical anions; type: cell-based; conditions: Neutrophil, human neutrophils; for IC50: 4×10^-8 M FMLP
# Experimental: 1. Preparation of human PMN
# Blood was taken from healthy subjects by venous puncture and neutrophils were purified by dextran sedimentation and resuspended in the buffered medium.
# 2. Inhibition of FMLP-stimulated production of superoxide radical anions.
# Neutrophils (2.5×10^5 ml^-1) were mixed with cytochrome C (1.2 mg/ml) in the wells of a microtitre plate. Compounds according to the invention were added in dimethyl sulphoxide (DMSO). Compound concentration ranged from 2.5 nM to 10 μM, the DMSO concentration was 0.1% v/v in all wells. After addition of cytochalasin b (5 μg×ml^-1) the plate was incubated for 5 min at 37° C. Neutrophils were then stimulated by addition of 4×10^-8 M FMLP and superoxide generation measured as superoxide dismutase inhibitable reduction of cytochrome C by monitoring the OD550 in a Thermomax microtitre plate spectrophotometer. Initial rates were calculated using a Softmax kinetic calculation programme. Blank wells contained 200 units of superoxide dismutase.
# The inhibition of superoxide production was calculated as follows: [formula] Rx=Rate of the well containing the compound according to the invention. Ro=Rate in the control well.
# Rb=Rate in the superoxide dismutase containing blank well.
# [2] = test system: FMLP-induced skin oedema; experiment: Effect of intravenously administered compounds on the FMLP-induced skin oedema guinea pigs; type: in vivo; conditions: i.v., 1 mg/kg, guinea pig
# Experimental: 5. Effect of intravenously administered compounds on the FMLP-induced skin oedema guinea pigs
# Guinea pigs (600-800 g) were anaesthetized with pentobarbitone sodium (40 mg/kg, i.p.) and injected (i.v.) with a 0.5 ml mixture of pentamine sky blue (5% W/V) and ^125 I-HSA (1 μli/animal). 10 minutes later 3 intradermal injections of FMLP (10 μg/site), 1 injection of histamine (1 μg/site) and 1 injection of vehicle (100 μl of 0.2% DMSO V/V in Hanks Buffered salt solution) were made on the left hand side of the animal (preinjection sites). 5 minutes later the drug (1 ml/kg) or the vehicle (50% PEG 400 V/V in distilled water, […]) was administered (i.v.). 10 minutes later an identical pattern of interadermal injections was made on the opposite flank of the animal (post-injection sites). These responses were allowed-to develop for 15 minutes before the animal was sacrificed and a blood sample taken.
# Skin sites and plasma samples were counted for 1 minute on a gamma counter an the degree of oedema calculated as μl plasma/skin site. Statistical analysis was done by a paired t-test on the mean of the 3 preinjection site values of μl plasma obtained for FMLP/animal. The percentage inhibition of drug or vehicle was calculated as follow
SMILES,IC50 [1] [µM],inhibition at 10 µM [1] [%],% inhibition [2] [%]
"COC(=O)CCc1c(C(=O)c2ccc(Cl)cc2)oc2cc(NC(=O)C(=O)OC)ccc12 [Example 1, 3-[2-(4-Chlorobenzoyl)-6-(2-methoxy-2-oxo-acetamido)-3-benzofuranyl]propanoic acid, methylester]",0.17,62,–
CCOC(=O)C(=O)Nc1ccc2c(CCC(=O)OC)c(C(=O)c3ccc(C)cc3)oc2c1 [Example 2],–,–,47
CCOC(=O)C(=O)Nc1ccc2c(CCC(=O)OC)c(C(=O)c3ccncc3)oc2c1 [Example 344],0.2,81,–

# The remaining molecules from weak to strong by IC50 [1], led by results:
IC50 [1] [µM],SMILES,inhibition at 10 µM [1] [%],% inhibition [2] [%]
0.9,CCOC(=O)C(=O)Nc1ccc2c(CCC(=O)OC)c(C(=O)c3ccc(Cl)cc3)oc2c1 [Example 7],86,–
0.11,CCOC(=O)C(=O)Nc1ccc2c(C)c(C(=O)c3ccc(C)cc3)oc2c1 [Example 6],67,–
